Key:
delF508-CFTR-HRP = target: T1, delF508-CFTR-HRP (Homo sapiens, UniProt P13569, DEL508-508); assay: Measurement of delF508-CFTR-HRP surface expression in CFBE41o- cells (HRP luminescence); format: cell-based; settings: for Emax: CFBE41o-, read-out: DelF508-CFTR-HRP Amax %; for EC50: mean of at least two replicates;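 as to DelF508-CFTR-HRP Amax %: percent efficacy relative to a reference CFTR corrector compound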
T1 construct: expressed in transfected cells
Summary of the method: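 EC50 derived by logistic regression of triplicate surface-HRP luminescence, plate-normalized to the lowest-concentration median. Doxycycline (500 ng/mL, 48 h) induced delF508-CFTR-HRP in CFBE41o- cells; compounds then applied 24 h at 37° C, 10 μM top, 3-fold over 10 points.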

delF508-CFTR = target: T2, delF508-CFTR (Homo sapiens, UniProt P13569, DEL508-508); assay: delF508-CFTR functional activity in primary human bronchial epithelial cells (HBECs), Multi-Transepithelial Clamp Circuit (MTECC-24) assay, equivalent short circuit current; format: cell-based; settings: primary CF HBECs; for MTECC24 CFHBEC-Amax %: relative to reference combination 2 μM 3-(6-(1-(2,2-difluorobenzo[d][1,3]dioxol-5-yl)cyclopropane-1-carboxamido)-3-methylpyridin-2-yl)benzoic acid (24 h) + 0.5 μM N-(2,4-di-tert-butyl-5-hydroxyphenyl)-4-oxo-1,4-dihydroquinoline-3-carboxamide; for EC50: test compound added 24 h before assay, potentiator (S)-3-amino-6-methoxy-N-(3,3,3-trifluoro-2-hydroxy-2-methylpropyl)-5-(trifluoromethyl)picolinamide present at assay, mean of at least two replicates, read-out: MTECC24 CFHBEC-EC50
T2 construct: functional activity of the CFTR channel (Chloride ion transport) in patient derived primary human bronchial epithelial cells; host or cells: patient-derived primary human bronchial epithelial cells (HBECs), delF508-CFTR
T2 sequence (P13569 with tags, fused parts or gaps DEL508-508): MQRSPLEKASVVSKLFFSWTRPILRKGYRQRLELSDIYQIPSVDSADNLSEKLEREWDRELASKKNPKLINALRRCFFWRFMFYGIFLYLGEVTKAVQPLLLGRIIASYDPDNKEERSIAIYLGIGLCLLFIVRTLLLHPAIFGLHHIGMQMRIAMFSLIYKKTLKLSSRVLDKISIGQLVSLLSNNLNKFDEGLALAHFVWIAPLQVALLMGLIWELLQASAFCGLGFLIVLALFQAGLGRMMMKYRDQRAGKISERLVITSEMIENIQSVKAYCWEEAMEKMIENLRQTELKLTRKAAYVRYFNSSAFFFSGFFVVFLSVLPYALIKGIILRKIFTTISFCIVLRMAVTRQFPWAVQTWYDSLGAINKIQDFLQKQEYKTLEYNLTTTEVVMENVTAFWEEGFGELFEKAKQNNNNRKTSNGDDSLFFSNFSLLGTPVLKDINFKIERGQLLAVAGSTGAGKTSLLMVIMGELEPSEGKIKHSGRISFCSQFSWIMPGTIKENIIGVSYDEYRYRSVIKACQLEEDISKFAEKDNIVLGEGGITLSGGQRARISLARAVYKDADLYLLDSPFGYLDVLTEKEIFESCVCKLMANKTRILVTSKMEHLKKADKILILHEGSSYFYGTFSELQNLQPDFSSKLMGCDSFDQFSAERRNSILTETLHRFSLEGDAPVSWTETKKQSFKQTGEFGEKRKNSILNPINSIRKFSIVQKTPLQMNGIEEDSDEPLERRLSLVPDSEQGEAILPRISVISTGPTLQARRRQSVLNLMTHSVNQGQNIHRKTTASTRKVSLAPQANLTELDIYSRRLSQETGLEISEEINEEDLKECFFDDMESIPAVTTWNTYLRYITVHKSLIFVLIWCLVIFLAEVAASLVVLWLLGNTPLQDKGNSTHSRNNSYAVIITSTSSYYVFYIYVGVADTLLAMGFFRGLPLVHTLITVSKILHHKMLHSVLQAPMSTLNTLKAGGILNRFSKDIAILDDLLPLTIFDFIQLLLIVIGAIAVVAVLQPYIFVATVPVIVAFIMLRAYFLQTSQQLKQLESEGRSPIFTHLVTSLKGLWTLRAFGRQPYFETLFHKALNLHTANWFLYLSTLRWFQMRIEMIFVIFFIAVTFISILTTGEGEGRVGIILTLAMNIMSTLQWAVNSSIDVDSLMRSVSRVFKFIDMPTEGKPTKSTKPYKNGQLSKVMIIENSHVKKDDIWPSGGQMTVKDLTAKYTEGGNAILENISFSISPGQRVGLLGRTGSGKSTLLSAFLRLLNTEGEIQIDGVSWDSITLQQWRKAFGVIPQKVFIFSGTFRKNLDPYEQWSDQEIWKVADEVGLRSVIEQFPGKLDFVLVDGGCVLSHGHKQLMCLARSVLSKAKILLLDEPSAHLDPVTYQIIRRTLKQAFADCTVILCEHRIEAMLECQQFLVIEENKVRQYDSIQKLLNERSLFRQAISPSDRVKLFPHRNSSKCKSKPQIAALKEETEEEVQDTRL
Summary of the method: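 Compound acted as corrector on differentiated primary delF508-CFTR bronchial cultures, first 24 h basolaterally, then 45 min both sides before reading. Equivalent short circuit current was recorded during sequential forskolin and potentiator addition. EC50 came from 10-point, 1-in-3 dilution curves against the 0.1% DMSO baseline.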

T1 sequence (P13569 with tags, fused parts or gaps DEL508-508): as above

SMILES	Emax (delF508-CFTR-HRP) [%]	EC50 (delF508-CFTR-HRP) [nM]	MTECC24 CFHBEC-Amax % (delF508-CFTR) [%]	EC50 (delF508-CFTR) [nM]	DelF508-CFTR-HRP Amax % (delF508-CFTR-HRP) [%]
Cc1ccc(C2CC2)c(OC2(C(=O)NS(=O)(=O)c3cccc(NC[C@H](C)O)n3)CC2)c1 [Example 4-14, (S)-1-(2-Cyclopropyl-5-methylphenoxy)-N-((6-((2-hydroxypropyl)amino)pyridin-2-yl)sulfonyl)cyclopropane-1-carboxamide]	119	3650	57	109	–
Cc1ccc(N2CCC(C)(C)CC2)c(OC2(C(=O)NS(=O)(=O)c3cccc(N4CC[C@H](O)C4)n3)CC2)c1 [Example 10-4, (S)-1-(2-(4,4-dimethylpiperidin-1-yl)-5-methylphenoxy)-N-((6-(3-hydroxypyrrolidin-1-yl)pyridin-2-yl)sulfonyl)cyclopropanecarboxamide]	717	2630	103.3	482	–
Cc1ccc(C2CCC3(CCC3)OC2)c(OC2(C(=O)NS(=O)(=O)c3cccc(N4CCC(C)(O)CC4)n3)CC2)c1 (single isomer, unassigned) [Example 11-4-1, N-((6-(4-hydroxy-4-methylpiperidin-1-yl)pyridin-2-yl)sulfonyl)-1-(5-methyl-2-(5-oxaspiro[3.5]nonan-7-yl)phenoxy)cyclopropane-1-carboxamide]	–	2260	60.8	1080	460.1
CC1(C)CCN(c2ccc(Cl)cc2OC2(C(=O)NS(=O)(=O)c3cccc(N4CC[C@H](O)C4)n3)CC2)CC1 [Example 8-1, (S)-1-(5-Chloro-2-(4,4-dimethylpiperidin-1-yl)phenoxy)-N-((6-(3-hydroxypyrrolidin-1-yl)pyridin-2-yl)sulfonyl)cyclopropane-1-carboxamide]	–	1740	197.2	373	–

Further compounds by falling EC50 (delF508-CFTR-HRP), results first:

Emax (delF508-CFTR-HRP) [%]	EC50 (delF508-CFTR-HRP) [nM]	MTECC24 CFHBEC-Amax % (delF508-CFTR) [%]	EC50 (delF508-CFTR) [nM]	DelF508-CFTR-HRP Amax % (delF508-CFTR-HRP) [%]	SMILES
816	2230	95	6	–	Cc1ccc(C2CCCCC2)c(OC2(C(=O)NS(=O)(=O)c3cccc(NCC(C)O)n3)CC2)c1 (centres unmarked) [Example 2-45, 1-(2-Cyclohexyl-5-methylphenoxy)-N-((6-((2-hydroxypropyl)amino)pyridin-2-yl)sulfonyl)cyclopropane-1-carboxamide]
641	2170	135.8	389	–	O=C(NS(=O)(=O)c1cccc(N2CC[C@H](O)C2)n1)C1(Oc2cc(Cl)ccc2N2CC3CCCC3C2)CC1 (stereo partly drawn) [Example 9-24, 1-(5-Chloro-2-(hexahydrocyclopenta[c]pyrrol-2(1H)-yl)phenoxy)-N-((6-((S)-3-hydroxypyrrolidin-1-yl)pyridin-2-yl)sulfonyl)cyclopropanecarboxamide]
620	2020	93	4	–	Cc1ccc(C2CCCCC2)c(OC2(C(=O)NS(=O)(=O)c3cccc(N(C)CC(C)O)n3)CC2)c1 (centres unmarked) [Example 2-48]
446	1260	154.0	197	–	O=C(NS(=O)(=O)c1cccc(N2CCC(O)CC2)n1)C1(Oc2cc(Cl)ccc2C2CC3(CCC3)C2)CC1 [Example 7-11, 1-(5-Chloro-2-(spiro[3.3]heptan-2-yl)phenoxy)-N-((6-(4-hydroxypiperidin-1-yl)pyridin-2-yl)sulfonyl)cyclopropane-1-carboxamide]
–	440	79.0	79	481.9	Cc1ccc(C2CCC3(CCCC3)OC2)c(OC2(C(=O)NS(=O)(=O)c3cccc(N4CCC(O)(c5ccc(Cl)cc5)CC4)n3)CC2)c1 (single isomer, unassigned) [Example 11-3-2, N-((6-(4-(4-chlorophenyl)-4-hydroxypiperidin-1-yl)pyridin-2-yl)sulfonyl)-1-(5-methyl-2-(6-oxaspiro[4.5]decan-8-yl)phenoxy)cyclopropane-1-carboxamide]
